Read-outs that look alike come from different tables or passages of the source.
How the values were obtained:
myeloma cells = assay type: cell-based
Method: For a typical screening experiment to identify the compounds, cells were seeded into 96- or 384-well microtiter plates at plating densities pre-determined for each cell line to ensure drug exposure occurs during the proliferative phase well before confluency is reached. After seeding, cells were incubated for 24 h prior to addition of experimental drugs. After 24 h, a test plate was assayed (CellTiterGlo—measurement of cytosolic ATP) to determine a baseline measurement of the cell population for each cell line at the time of drug addition. Experimental drugs were then added and cells were cultured for a 48 h drug exposure window. […] Values were calculated for each of these three parameters if the level of activity was reached; however, if the effect was not reached or was exceeded, the value for that parameter was expressed as greater or less than the maximum or minimum concentration tested.

HL-60 = experiment: NCI 60 panel: HL-60 (Leukemia); assay type: cell-based
OVCAR-8 = experiment: NCI 60 panel: OVCAR-8 (Ovarian Cancer); assay type: cell-based
U251MG = experiment: Complementary DBM in vitro profiling: U251MG (CNS Cancer); assay type: cell-based
Method: (§1) The compounds described herein are effective for inhibiting cellular proliferation in hyperproliferative cell types. To study the effects of these compounds, an assay was developed to differentiate the effects of the compounds on proliferating versus confluent cells. The assay design generates a proliferating density 24 hours after seeding and provides a 3-day active cell growth/doubling window in which to gauge the anti-proliferative effect of the compounds described herein. […] In this 3-day growth window, cell number increases with daily doublings across the 72-hour period (see FIG. 1).
(§2) In each assay design, compounds were added at the 24-hour timepoint after cell seeding. The effect of the compounds, relative to vehicle control and to VelCade (a proteasome inhibitor approved in the U.S. for treating relapsed multiple myeloma and mantle cell lymphoma) as a positive control, was assessed across the 3-day growth window for proliferating cells and on an already near confluent culture of cells for the same time period. Normal cells were handled in the same manner, with some adjustment of seeding density needed in select cases. […]
(§3) Cell number at the end of the assay was determined using the CELLTITER-GLO Luminescent Cell Viability Assay (Promega; Madison, Wis.). The CELLTITER-GLO Luminescent Cell Viability Assay is a homogeneous method of determining the number of viable cells in culture based on quantitation of the ATP present, an indicator of metabolically active cells. IC50 values were calculated. […]
(§4) For a typical screening experiment to identify the compounds, cells were seeded into 96- or 384-well microtiter plates at plating densities pre-determined for each cell line to ensure drug exposure occurs during the proliferative phase well before confluency is reached. […] Values were calculated for each of these three parameters if the level of activity was reached; however, if the effect was not reached or was exceeded, the value for that parameter was expressed as greater or less than the maximum or minimum concentration tested.

SF-295 = experiment: NCI 60 panel: SF-295 (CNS Cancer); assay type: cell-based
786-0 = experiment: NCI 60 panel: 786-0 (Renal Cancer); assay type: cell-based
SW-620 = experiment: NCI 60 panel: SW-620 (Colon Cancer); assay type: cell-based
SNB-19 = experiment: NCI 60 panel: SNB-19 (CNS Cancer); assay type: cell-based
U118MG = experiment: Complementary DBM in vitro profiling: U118MG (CNS Cancer); assay type: cell-based
Method: as §1, §2, §3, §4

T98G = experiment: Complementary DBM in vitro profiling: T98G (CNS Cancer); assay type: cell-based
Method: as §1, §2, §3, §4

OVCAR-3 = test system: OVCAR-3
Excerpt: (§5) TGI means the drug concentration resulting in total growth inhibition or “cytostasis.” LC50 is the concentration of drug resulting in a 50% reduction in the measured cytosolic ATP at the end of the drug treatment as compared to that at the beginning, indicating a net loss of cells following treatment (cytotoxicity).
(§6) A major limitation with the anti-mitotic drugs in particular and in conventional chemotherapeutics in general, is their susceptibility to cellular mechanisms of adaptive/intrinsic multi-drug resistance (i.e., MDR efflux pumps such as p-glycoprotein, MRP1).

NCI/ADR-RES = test system: NCI/ADR-RES
Excerpt: as §5, §6

SK-OV-3 = test system: SK-OV-3
Excerpt: as §5, §6

K-562 = experiment: NCI 60 panel: K-562 (Leukemia); assay type: cell-based
tubulin = experiment: Biochemical tubulin polymerization; conditions: FIG. 11C
Method: Following 24 hours of treatment with Compound DBM 228, Compound DBM 318, and Compound DBM 328, caspase 3/7 activation in U251MG cells was determined. The detection of caspase 3/7 activation in U251MG cells indicates activation of apoptosis. Tubulin polymerization was determined for Compounds DBM 227, DBM 228, DBM 308, DBM 318, DBM 701, DBM 707, DBM 715, paclitaxel, vincristine, and negative control Compound DBM 328. […] Paclitaxel served as polymerization enhancer control and vincristine served as polymerization inhibitor control.

RXF 393 = experiment: NCI 60 panel: RXF 393 (Renal Cancer); assay type: cell-based
HCT-15 = experiment: NCI 60 panel: HCT-15 (Colon Cancer); assay type: cell-based
NCI-60 cell panel = experiment: NCI-60 cell panel, whole panel; assay type: cell-based, human; conditions: average in the NCI-60 cell panel
MDA-MB-435 = experiment: NCI 60 panel: MDA-MB-435 (Melanoma); assay type: cell-based
M14 = experiment: NCI 60 panel: M14 (Melanoma); assay type: cell-based
[1] = myeloma cells, 48 h drug exposure
[2] = read-out: LC50 (the source's name)

## COc1ccccc1Nc1nc(-c2cc3cccc(N)c3oc2=O)cs1 [Compound DBM 228]
Myeloma cells
  CC50: > 4 µM
Myeloma cells; [1]
  GI50: 160 nM
  TGI: 271 nM
HL-60
  GI50: 34 nM
  TGI: 137 nM
HL-60; [2]
  CC50: 825 nM
OVCAR-8
  GI50: 310 nM
  TGI: 13.2 µM
OVCAR-8; [2]
  CC50: > 100 µM
U251MG
  GI50: 197 nM
  TGI: >30 µM
U251MG; [2]
  CC50: > 30 µM
SF-295
  GI50: 42.4 nM
  TGI: 1.49 µM
SF-295; [2]
  CC50: 41.5 µM
786-0
  GI50: 709 nM
  TGI: 15.9 µM
786-0; [2]
  CC50: 89.4 µM
SW-620
  GI50: 64 nM
  TGI: >100 µM
SW-620; [2]
  CC50: > 100 µM
SNB-19
  GI50: 182 nM
  TGI: 35 µM
SNB-19; [2]
  CC50: > 100 µM
U118MG
  GI50: 2710 nM
  TGI: 7.85 µM
U118MG; [2]
  CC50: > 30 µM
T98G
  GI50: 467 nM
  TGI: 3.97 µM
T98G; [2]
  CC50: 17.6 µM
OVCAR-3
  CC50: 24.2 µM
OVCAR-3; OVCAR-3
  GI50: 45.6 nM
  TGI: 322 nM
OVCAR-3; OVCAR-3, as stated in text
  GI50: 50 nM
NCI/ADR-RES
  CC50: > 100 µM
NCI/ADR-RES; NCI-ADR/RES versus drug-responsive cells
  potency in multi-drug resistant line, in words (FIG. 9): remained potent
NCI/ADR-RES; NCI/ADR-RES
  GI50: 45.9 nM
  TGI: 327 nM
NCI/ADR-RES; read-out: potency in the NCI-ADR/RES cell line, multi-drug resistant NCI-ADR/RES
  IC50: 44.5 nM
SK-OV-3
  CC50: > 100 µM
SK-OV-3; SK-OV-3
  GI50: 410 nM
  TGI: 22 µM
SK-OV-3; SK-OV-3, as stated in text
  GI50: 330 nM
K-562
  GI50: 43 nM
  TGI: 16.1 µM
K-562; [2]
  CC50: > 100 µM
tubulin
  effect on biochemical tubulin polymerization, in words: modestly inhibited
RXF 393
  GI50: 218 nM
  TGI: 15.2 µM
RXF 393; [2]
  CC50: 52.6 µM
HCT-15
  GI50: 128 nM
  TGI: 17.3 µM
HCT-15; [2]
  CC50: > 100 µM
NCI-60 cell panel
  GI50: 250 nM
MDA-MB-435
  GI50: 23.1 nM
  TGI: 67.9 nM
MDA-MB-435; [2]
  CC50: 69.5 µM
M14
  GI50: 70.8 nM
M14; [2]
  CC50: 49.9 µM

Source: patent US10369145B2, “Coumarin derivatives and methods of use in treating hyperproliferative diseases” (DISCOVERYBIOMED, INC., priority 2013, dated 2019)
